Results reported in ChEMBL document CHEMBL5724696, “Autophagy assay results for EUbOPEN Chemogenomics Library” (2024).

Columns and labels:
Type in all cases: functional, Homo sapiens
TERT-RPE1 = test: (§1) Here: values are normalized to the negative (DMSO; defined as 0% autophagy induction) and positive (250nM Torin1; mTOR inhibitor; defined as maximal inducer of autophagy = 100%) control compounds and represented as % of autophagy induction. […] The impact of autophagy induction on cells is complex and depends on the affected target. As such, the magnitude of a phenotype may not be equally mirrored in the %-value of autophagy induction and vice versa. The dynamics of the induction may indicate the mode of activation: e.g. activation via phosphorylation or a signaling cascade may occur fast, while activation via transcription factors may take considerably longer. […] Of note, treatment concentrations may be sub-optimal for specific compounds, leading to false negative annotations.; details: Culturing Media DMEM/F12 (1:1), 1 % Penicillin/Streptomycin, 10% Fetal bovin serum Add-On: No, Screening Media Control DMEM/F12 (1:1), Screening Media Samples DMEM/F12 (1:1)
U2OS [1] = test: as §1; details: Culturing Media DMEM, 1 % Penicillin/Streptomycin, 10% Fetal bovin serum Add-On: No, Screening Media Control DMEM, Screening Media Samples DMEM
U2OS [2] = test: as §1; details: Culturing Media DMEM, 1 % Penicillin/Streptomycin, 10% Fetal bovin serum Add-On: No, Screening Media Control DMEM, Screening Media Samples DMEM; remark: listed apart in the source
[3] = Compound Concentration 0.5 uM, Timepoint 12 hours
[4] = Compound Concentration 0.5 uM, Timepoint 24 hours
[5] = Compound Concentration 0.5 uM, Timepoint 36 hours
[6] = Compound Concentration 0.5 uM, Timepoint 60 hours
[7] = Compound Concentration 2 uM, Timepoint 12 hours
[8] = Compound Concentration 2 uM, Timepoint 24 hours
[9] = Compound Concentration 2 uM, Timepoint 36 hours
[10] = Compound Concentration 2 uM, Timepoint 60 hours
[11] = Compound Concentration 10 uM, Timepoint 12 hours
[12] = Compound Concentration 10 uM, Timepoint 24 hours
[13] = Compound Concentration 10 uM, Timepoint 36 hours
[14] = Compound Concentration 10 uM, Timepoint 60 hours

SMILES | autophagy induction (TERT-RPE1; [3]) [%] | autophagy induction (TERT-RPE1; [4]) [%] | autophagy induction (TERT-RPE1; [5]) [%] | autophagy induction (TERT-RPE1; [6]) [%] | autophagy induction (TERT-RPE1; [7]) [%] | autophagy induction (TERT-RPE1; [8]) [%] | autophagy induction (TERT-RPE1; [9]) [%] | autophagy induction (TERT-RPE1; [10]) [%] | autophagy induction (TERT-RPE1; [11]) [%] | autophagy induction (TERT-RPE1; [12]) [%] | autophagy induction (TERT-RPE1; [13]) [%] | autophagy induction (TERT-RPE1; [14]) [%] | autophagy induction (U2OS [1]; [3]) [%] | autophagy induction (U2OS [1]; [4]) [%] | autophagy induction (U2OS [1]; [5]) [%] | autophagy induction (U2OS [1]; [6]) [%] | autophagy induction (U2OS [1]; [7]) [%] | autophagy induction (U2OS [1]; [8]) [%] | autophagy induction (U2OS [1]; [9]) [%] | autophagy induction (U2OS [1]; [10]) [%] | other results
COc1ccc(C2(O)OC(=O)C(c3ccc4c(c3)OCO4)=C2Cc2cc(OC)c(OC)c(OC)c2)cc1 (centres undefined) [PD-156707] | -7.977 | -6.312 | -1.3569 | 6.352 | -3.2518 | -7.638 | -7.617 | -7.701 | -8.81 | -9.172 | -8.276 | -11.0822 | -0.3009 | 0.4369 | -0.07956 | -0.9865 | -2.496 | -1.926 | -0.6682 | -1.242 | autophagy induction (U2OS [1]; [11]): -0.3825%; autophagy induction (U2OS [1]; [12]): -1.441%; autophagy induction (U2OS [1]; [13]): -0.8744%; autophagy induction (U2OS [1]; [14]): -0.2319%; autophagy induction (U2OS [2]; [3]): 2.427%; autophagy induction (U2OS [2]; [4]): 7.779%; autophagy induction (U2OS [2]; [5]): 2.534%; autophagy induction (U2OS [2]; [6]): -0.8382%; autophagy induction (U2OS [2]; [7]): -5.016%; autophagy induction (U2OS [2]; [8]): 3.24%; autophagy induction (U2OS [2]; [9]): -2.65%; autophagy induction (U2OS [2]; [10]): -6.1634%; autophagy induction (U2OS [2]; [11]): -12.4956%; autophagy induction (U2OS [2]; [12]): -10.1664%; autophagy induction (U2OS [2]; [13]): -12.3712%; autophagy induction (U2OS [2]; [14]): -18.4825%
COc1ccnc(N2CCC3(CCCN(Cc4c[nH]c5ccccc45)C3=O)CC2)n1 | -7.48 | -12.7476 | -12.8002 | -18.0789 | -3.2646 | -8.655 | -9.0208 | -13.8382 | -6.8833 | -7.1204 | -8.728 | -9.531 | 6.725 | 2.47 | 0.2405 | -0.1995 | -9.208 | -5.729 | -5.289 | -3.421 | autophagy induction (U2OS [1]; [11]): 2.478%; autophagy induction (U2OS [1]; [12]): -1.409%; autophagy induction (U2OS [1]; [13]): -1.806%; autophagy induction (U2OS [1]; [14]): -1.259%; autophagy induction (U2OS [2]; [3]): -0.8639%; autophagy induction (U2OS [2]; [4]): 3.062%; autophagy induction (U2OS [2]; [5]): -2.159%; autophagy induction (U2OS [2]; [6]): 0.6428%; autophagy induction (U2OS [2]; [7]): 14.1219%; autophagy induction (U2OS [2]; [8]): 7.888%; autophagy induction (U2OS [2]; [9]): 7.881%; autophagy induction (U2OS [2]; [10]): 5.533%; autophagy induction (U2OS [2]; [11]): -0.07351%; autophagy induction (U2OS [2]; [12]): -0.8676%; autophagy induction (U2OS [2]; [13]): 0.7982%; autophagy induction (U2OS [2]; [14]): -3.188%
Cc1nc(C(=O)N2CCC[C@H]2Cc2nnc(-c3ccccc3)o2)c(-c2ccccc2F)s1 | -3.536 | -6.3015 | -4.185 | -7.252 | -4.803 | -6.585 | -5.999 | -9.333 | 0.2716 | 0.5174 | 2.2318 | 3.905 | 4.15 | -0.2081 | -2.227 | -2.102 | 0.7749 | -1.115 | -1.752 | -2.832 | autophagy induction (U2OS [1]; [11]): 4.1851%; autophagy induction (U2OS [1]; [12]): 1.702%; autophagy induction (U2OS [1]; [13]): -1.044%; autophagy induction (U2OS [1]; [14]): -3.102%; autophagy induction (U2OS [2]; [3]): 13.4134%; autophagy induction (U2OS [2]; [4]): 8.147%; autophagy induction (U2OS [2]; [5]): 0.9843%; autophagy induction (U2OS [2]; [6]): 3.676%; autophagy induction (U2OS [2]; [7]): 5.837%; autophagy induction (U2OS [2]; [8]): 5.052%; autophagy induction (U2OS [2]; [9]): 3.424%; autophagy induction (U2OS [2]; [10]): -6.267%; autophagy induction (U2OS [2]; [11]): 0.7146%; autophagy induction (U2OS [2]; [12]): 3.711%; autophagy induction (U2OS [2]; [13]): -0.07108%; autophagy induction (U2OS [2]; [14]): -6.907%
CCc1cc(C(C)=O)c(O)cc1OCCCCCC(C)(C)c1nn[nH]n1 [LY-255283] | -9.9842 | -11.9426 | -14.7708 | -17.4457 | -8.34 | -9.195 | -15.7799 | -19.0275 | -6.621 | -4.037 | -5.452 | -5.811 | 3.867 | -0.4862 | -0.9692 | -0.6256 | 7.835 | 0.4992 | -1.36 | 0.1348 | autophagy induction (U2OS [1]; [11]): 10.6288%; autophagy induction (U2OS [1]; [12]): 4.072%; autophagy induction (U2OS [1]; [13]): 1.093%; autophagy induction (U2OS [1]; [14]): 0.5552%; autophagy induction (U2OS [2]; [3]): 7.95%; autophagy induction (U2OS [2]; [4]): 0.1788%; autophagy induction (U2OS [2]; [5]): 0.4616%; autophagy induction (U2OS [2]; [6]): 2.676%; autophagy induction (U2OS [2]; [7]): 6.9255%; autophagy induction (U2OS [2]; [8]): 1.248%; autophagy induction (U2OS [2]; [9]): 3.296%; autophagy induction (U2OS [2]; [10]): 1.486%; autophagy induction (U2OS [2]; [11]): -12.1559%; autophagy induction (U2OS [2]; [12]): -5.674%; autophagy induction (U2OS [2]; [13]): -8.912%; autophagy induction (U2OS [2]; [14]): -14.6191%
